# Data: patent US9856290B2, “Glycopeptide compositions and uses thereof” (SUSSEX RESEARCH LABORATORIES INC., priority 2013, dated 2018)
# Marks after values point to notes of the source that are not given here. The star is where a group is joined. Ac3‑α‑GalNAc = per-acetylated α-N-acetylgalactosamine (O-glycoside), CC(=O)N[C@@H]1[C@@H](OC(C)=O)[C@@H](OC(C)=O)[C@@H](COC(C)=O)O[C@@H]1*; Ac3‑β‑GlcNAc = per-acetylated β-N-acetylglucosamine, CC(=O)N[C@@H]1[C@@H](OC(C)=O)[C@H](OC(C)=O)[C@@H](COC(C)=O)O[C@H]1*; Ac4‑β‑Glc = per-acetylated β-glucose (tetraacetyl), CC(=O)OC[C@H]1O[C@@H](*)[C@H](OC(C)=O)[C@@H](OC(C)=O)[C@@H]1OC(C)=O; βGlcNAc = CC(=O)N[C@@H]1[C@@H](O)[C@H](O)[C@@H](CO)O[C@H]1*; βGlc = OC[C@H]1O[C@@H](*)[C@H](O)[C@@H](O)[C@@H]1O; Palmitoyl = CCCCCCCCCCCCCCCC(=O)*
# Legend:
# [1] = test system: Human Dermal Fibroblasts (KMST-6); experiment: ECM ELISA assay: elastin secretion by human dermal fibroblasts; type: cell-based; settings: 5 μM; for Elastin Secretion at 48 hours: KMST-6, 48 hours; for Elastin Secretion at 48 hours / Elastin Secretion at 72 hours: % compared to control set at 100%, normalized to total protein; for Elastin Secretion at 72 hours / ELASTIN (ECM Protein Summary Table): KMST-6, 72 hours; for ELASTIN (ECM Protein Summary Table): control 100%
# In short: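 KMST-6 human dermal fibroblasts treated with 5 μM compound in serum-free medium with sodium ascorbate and β-aminopropionate fumarate for 48 and 72 h. Secreted fibronectin and elastin quantified by ELISA (450 nm, 4-parameter standard curve), normalized to total cellular protein and expressed as % of DMSO control.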
# [2] = test system: Human Dermal Fibroblasts (KMST-6); experiment: ECM ELISA assay: fibronectin secretion by human dermal fibroblasts; type: cell-based; settings: 5 μM; for Fibronectin secretion at 48 hours: KMST-6, 48 hours; for Fibronectin secretion at 48 hours / Fibronectin Secretion at 72 hours: % compared to control set at 100%, normalized to total protein; for Fibronectin Secretion at 72 hours / FIBRONECTIN (ECM Protein Summary Table): KMST-6, 72 hours; for FIBRONECTIN (ECM Protein Summary Table): control 100%
# Method: KMST-6 cells (Japan Health Sciences Foundation, JCRB0433) were seeded at 7,000 cells/ml in 12-well tissue culture treated plates (Falcon, 353043) in complete media. The complete media consisted of the following: MEM/EBSS (Hyclone, SH30024.01), 10% Heat-Inactivated FBS (Gibco, 10082-147), 1% L-Glutamine (Hyclone, SH30031.01), 1% Nucleosides (800 mg/L Adenosine, 850 mg/L Guanidine, 730 mg/L Cytidine, 730 mg/L Uridine and 240 mg/L Thymidine), 1% Penicillin/Streptomycin (HyClone, SV30010), 1% Sodium Pyruvate (HyClone, SH30239.01), 1% Non-Essential Amino Acids (Hyclone, SH30238.01) and 0.04% Gentamicin (Gibco, 15710-064). Cells were grown for 2 days prior to treatments. The media was aspirated and cells were washed with 1×PBS (Fisher, SH30256.01) and treated with 5 μM (1 mL/well) glycopeptides, reference (Pal-KTTKS, CPC Scientific, 822197), and control (DMSO, Fisher, BP231-100) in serum-free media supplemented with 50 μg/mL Sodium Ascorbate (Sigma, A4034) and 80 μg/mL β-Aminopropionate Fumarate (Sigma, A3134). The treated cells were incubated at 37° C. and 5% CO2 for 48 and 72 hours. At each timepoint, media from each treatment was collected and centrifuged at 1500 RPM for 15 minutes at 4° C. The supernatant was collected and stored at −80° C. for extracellular matrix protein quantification. The following kits were used for quantification of ECM proteins: Fibronectin (Takara, MK115) and Elastin (Uscn Life Science Inc., E91337Hu). The cells were harvest and lysed with 250 μL Lysis Buffer (20 mM Tris-HCl (Sigma, T1503), 137 mM NaCl (Sigma, S9888), 2 mM EDTA (Fisher, BP118), 1% IGEPAL (Sigma, 18896), 10% Glycerol (Sigma, G5516), 100 μM PMSF (Fisher, 36978) and 10 μg/mL Leupeptin (Sigma-Aldrich, L2884). They were placed on a container of ice on a plate shaker (Lab-Line Instruments, 3595) for 30 minutes. The lysate was centrifuged at 10,000 g for 5 minutes at 4° C. The supernatant was collected and used for protein quantification (BioRad, 500-0112).
# To determine effects on extracellular matrix protein secretion, 5 μM of individual glycopeptides were incubated with Human Dermal Fibroblasts (KMST-6). The control sample cells were treated with DMSO (Fisher, BP231-100). As described previously, supernatant was collected from treated cells (at two time-points, 48 and 72 hours of treatment) and stored at −80° C. for subsequent extracellular matrix protein quantification using ELISA kits (Fibronectin (Takara, MK115), Elastin (Uscn Life Science Inc., E91337Hu). For the determination of total cellular protein, treated cells were harvested and lysed. The lysate was centrifuged, the supernatant was collected and then used for protein quantification (BioRad, 500-0112). ELISA plates were read on the plate reader (Molecular Devices) at absorbance of 450 nm and SoftMax Pro software was used to compute the μg/ml values of protein of interest derived from the generated 4-parameter fit standard curve. Each μg/ml of protein secreted was normalized to total protein per well. The data was analysed by averaging out normalized values from at least three independent experiments and presenting them as a % compared to control treatment set at 100% (Table 2-5). Statistical significance was performed using One-way ANOVA (p<0.05) where “*” represents statistical significance when compared to control and “#” represents statistical significance when compared to reference. […]
Substance,Elastin Secretion at 48 hours [1],Elastin Secretion at 72 hours [1],Fibronectin secretion at 48 hours [2],Fibronectin Secretion at 72 hours [2],biological activity in elastin secretion compared to control ([1]; 72 hours),"increased elastin secretion compared to control ([1]; 72 hours, versus DMSO control)","increased secretion of elastin compared to the reference peptide ([1]; 72 hours, versus Pal-KTTKS reference)",ELASTIN (ECM Protein Summary Table) [1],biological activity in fibronectin secretion compared to control ([2]; 72 hours),"increased fibronectin secretion compared to control ([2]; 72 hours, versus DMSO control)",FIBRONECTIN (ECM Protein Summary Table) [2]
Pal-KT(β-Glc)TKS-OH (Palmitoyl-KT(βGlc)TKS-OH; SMILES CCCCCCCCCCCCCCCC(=O)N[C@@H](CCCCN)C(=O)N[C@H](C(=O)N[C@H](C(=O)N[C@@H](CCCCN)C(=O)N[C@@H](CO)C(=O)O)[C@@H](C)O)[C@@H](C)O[C@@H]1O[C@H](CO)[C@@H](O)[C@H](O)[C@H]1O; listed as Homo sapiens) [GP001-2],102.8%,94.50%,133.0%,115.4%,–,–,–,–,–,–,–
Pal-KTTKS(Ac4-β-Glc)-OH (Palmitoyl-KTTKS(Ac4‑β‑Glc)-OH; SMILES CCCCCCCCCCCCCCCC(=O)N[C@@H](CCCCN)C(=O)N[C@H](C(=O)N[C@H](C(=O)N[C@@H](CCCCN)C(=O)N[C@@H](CO[C@@H]1O[C@H](COC(C)=O)[C@@H](OC(C)=O)[C@H](OC(C)=O)[C@H]1OC(C)=O)C(=O)O)[C@@H](C)O)[C@@H](C)O; listed as Homo sapiens) [GP002-3],460.4* %,321.6* %,135.5%,134.5* %,greater biological activity,222%,189%,322*^# %,greater biological activity,35%,135* %
Pal-KT(Ac3-α-GalNAc)TKS-OH (Palmitoyl-KT(Ac3‑α‑GalNAc)TKS-OH; SMILES CCCCCCCCCCCCCCCC(=O)N[C@@H](CCCCN)C(=O)N[C@H](C(=O)N[C@H](C(=O)N[C@@H](CCCCN)C(=O)N[C@@H](CO)C(=O)O)[C@@H](C)O)[C@@H](C)O[C@H]1O[C@H](COC(C)=O)[C@H](OC(C)=O)[C@H](OC(C)=O)[C@H]1NC(C)=O; listed as Homo sapiens) [GP001-3],123.3%,132.5%,163.8* %,117.4%,–,–,–,–,–,–,–
Pal-KTTKS(β-GlcNAc)-OH (Palmitoyl-KTTKS(βGlcNAc)-OH; SMILES CCCCCCCCCCCCCCCC(=O)N[C@@H](CCCCN)C(=O)N[C@H](C(=O)N[C@H](C(=O)N[C@@H](CCCCN)C(=O)N[C@@H](CO[C@@H]1O[C@H](CO)[C@@H](O)[C@H](O)[C@H]1NC(C)=O)C(=O)O)[C@@H](C)O)[C@@H](C)O; listed as Homo sapiens) [GP002-6],150.7%,111.0%,109.7%,115.8%,–,–,–,–,–,–,–
Pal-KT(Ac4-β-Glc)TKS-OH (Palmitoyl-KT(Ac4‑β‑Glc)TKS-OH; SMILES CCCCCCCCCCCCCCCC(=O)N[C@@H](CCCCN)C(=O)N[C@H](C(=O)N[C@H](C(=O)N[C@@H](CCCCN)C(=O)N[C@@H](CO)C(=O)O)[C@@H](C)O)[C@@H](C)O[C@@H]1O[C@H](COC(C)=O)[C@@H](OC(C)=O)[C@H](OC(C)=O)[C@H]1OC(C)=O; listed as Homo sapiens) [GP001-1],205.3%,188.0%,159.3* %,121.5%,greater biological activity,–,–,188%,greater biological activity,–,122%
Pal-KT(β-GlcNAc)TKS-OH (Palmitoyl-KT(βGlcNAc)TKS-OH; SMILES CCCCCCCCCCCCCCCC(=O)N[C@@H](CCCCN)C(=O)N[C@H](C(=O)N[C@H](C(=O)N[C@@H](CCCCN)C(=O)N[C@@H](CO)C(=O)O)[C@@H](C)O)[C@@H](C)O[C@@H]1O[C@H](CO)[C@@H](O)[C@H](O)[C@H]1NC(C)=O; listed as Homo sapiens) [GP001-6],91.00%,81.50%,123.2%,100.0%,–,–,–,–,–,–,–
Pal-KTT(Ac3-β-GlcNAc)KS-OH (Palmitoyl-KTT(Ac3‑β‑GlcNAc)KS-OH; SMILES CCCCCCCCCCCCCCCC(=O)N[C@@H](CCCCN)C(=O)N[C@H](C(=O)N[C@H](C(=O)N[C@@H](CCCCN)C(=O)N[C@@H](CO)C(=O)O)[C@@H](C)O[C@@H]1O[C@H](COC(C)=O)[C@@H](OC(C)=O)[C@H](OC(C)=O)[C@H]1NC(C)=O)[C@@H](C)O; listed as Homo sapiens) [GP001-11],114.3%,94.75%,111.2%,113.8%,–,–,–,–,–,–,–
